The text below walks through data of ChEMBL document CHEMBL1147820, “Enhanced pharmacokinetic properties of 1,4-benzodiazepine-2,5-dione antagonists of the HDM2-p53 protein-protein interaction through structure-based drug design” (Bioorg Med Chem Lett, 2006).

Series [1] is described as follows: Cmax in mouse at 40 mg/kg, po. It is filed as ADME, organism-based. The settings on record: in vivo. On the set-up: dose 40 mg/kg, route oral.
Series [2] in a line: Bioavailability in mouse. It is filed as ADME, organism-based. The settings on record: in vivo.
Series [3] is described as follows: in vitro. To be noted: human, Caco-2.
Series [4] in a line: in vitro. The settings on record: human, Caco-2. The source holds these as a separate data set.
Series [5] in a line: Half life in mouse at 40 mg/kg, po. The settings on record: in vivo. It counts as ADME, organism-based. On the set-up: dose 40 mg/kg, route oral.
The nature of series [6]: Clearance in mouse at 5 mg/kg, iv. On the set-up: dose 5 mg/kg, route intravenous. The settings on record: in vivo. It is filed as ADME, organism-based.
A short description of series [7]: Half life in mouse at 5 mg/kg, iv. It counts as ADME, organism-based. On the set-up: dose 5 mg/kg, route intravenous. The settings on record: in vivo.
Series [8] is described as follows: Volume of distribution in mouse at 5 mg/kg, iv. To be noted: in vivo, read-out: Vdss. On the set-up: dose 5 mg/kg, route intravenous. It counts as ADME, organism-based.
A short description of series [9]: Tmax in mouse at 40 mg/kg, po. On the set-up: dose 40 mg/kg, route oral. It is filed as ADME, organism-based. The settings on record: in vivo.

As a reminder, the Cmax is the peak of the concentration-time curve. Broadly, the bioavailability is the share of a dose that reaches the circulation, judged against a reference dose that is usually intravenous. What is called Papp B→A is how fast a substance crosses the layer from the basolateral side. As usually defined, the Papp A→B is how fast a substance crosses the layer from the apical side. The half-life is how long it takes for the measured level to halve. A higher half-life goes with slow loss. A word on the clearance: it is the rate of elimination divided by the concentration. Read a low clearance as inefficient removal. As a reminder, the Tmax is the time at which the peak concentration occurs.

Turning to `C[C@H](c1ccc(Cl)cc1)N1C(=O)c2cc(I)ccc2N(CCCCC(=O)O)C(=O)[C@@H]1c1ccc(Cl)cc1`, the highest level in [1] (Cmax) was 6.3 µM. The same compound came in with a bioavailability in series [2] of 100%. The compound further registered a Papp B→A in series [3] of 13 ×10⁻⁶ cm/s. The same compound had a Papp A→B in series [4] of 7.34 ×10⁻⁶ cm/s. Moreover, the half-life is 2.5 h in series [5] and 3.1 h in series [7]. The clearance in series [6] was 13.2 mL/min/kg. In addition, the Vd in [8] stood at 3 L/kg. In [9], the time of peak concentration (Tmax) is 6 h.
On to `CC#Cc1ccc2c(c1)C(=O)N([C@H](C)c1ccc(Cl)cc1)[C@@H](c1ccc(Cl)cc1)C(=O)N2CCCCC(=O)O`, for which, in [3], the apparent permeability from basolateral to apical (Papp B→A) came to 9.1 ×10⁻⁶ cm/s. In [4], this compound came in with a Papp A→B of 19.9 ×10⁻⁶ cm/s.
The corresponding values for `C#Cc1ccc2c(c1)C(=O)N([C@H](C)c1ccc(Cl)cc1)[C@@H](c1ccc(Cl)cc1)C(=O)N2CCCCC(=O)O` are 16.1 ×10⁻⁶ cm/s and 20.9 ×10⁻⁶ cm/s.
